Measured values as given in patent publication US6602510B1, “HLA class I A2 tumor associated antigen peptides and vaccine compositions” (priority 2000, dated 2003).

What was measured:
[1] = tested on: patients with recurrent or residual cervical carcinoma; conditions: cited from earlier work
[2] = tested on: PBMC from normal donors; format: cell-based, human

| Substance | responding patients ([1]; 95% interval 10-65%) [%] | safety ([1]; co-emulsified with HPV-derived CTL epitopes) | antigen concentration at which the 10,000 cpm proliferation level was reached [2] |
| --- | --- | --- | --- |
| aKXVAAWTLKAAa-NH2 | 33 | favorable safety profile | – |
| QYIKANSKFIGITE [Epitope 553.01] | – | – | about 10,000 ng/ml |
